Results as given in publication PMC9959349, “Discovery of the 3-Amino-1,2,4-triazine-Based Library as Selective PDK1 Inhibitors with Therapeutic Potential in Highly Aggressive Pancreatic Ductal Adenocarcinoma” (International Journal of Molecular Sciences, 2023).

How the values were obtained:
PSN-1 cells [1] = experiment: Cell death induction, Hoechst 33258 staining; type: cell-based, human; settings: 48 h, IC50 doses
Protocol: As a last mechanistic evaluation, the ability of selected compounds 5i and 6h to induce cancer cell death by means of apoptosis, was also assessed.
PSN-1 cells were seeded into 8-well tissue-culture slides (BD Falcon, Bedford, MA, USA) at 5 × 10^4 cells/well (0.8 cm^2). […] Samples were examined at 5× and 40× magnification in a Zeiss LSM 800 confocal microscope using the Zeiss ZEN 2.3 software system (Zeiss, Oberkochen, Germany).

PSN-1 cells [2] = experiment: 3D spheroid cytotoxicity, acid phosphatase (APH) assay, PSN-1; settings: read-out: IC50 ±S.D. PSN-1 (3D cytotoxicity); spheroids, 72 h, APH test
Protocol: (§1) The PDAC cancer spheroids were treated with tested compounds for 72 h, and cell viability was assessed by means of the acid phosphatase (APH) assay (Table 3).
(§2) An APH-modified assay was used for determining cell viability in 3D spheroids, as previously described [61]. Briefly, the pre-seeded spheroids were treated with fresh medium containing the compound to be studied at the appropriate concentration (range 2.5–200 μM). Triplicate cultures were established for each treatment. After 72 h, each well was treated with 100 μL of the assay buffer (0.1 M sodium acetate, 0.1% Triton-X-100, supplemented with ImmunoPure p-nitrophenyl phosphate; Sigma Chemical Co., Ltd.) and, following 3 h of incubation, 10 μL of 1 M NaOH solution was added. […] The mean absorbance for each drug dose was expressed as a percentage of the control untreated well absorbance (T/C) and plotted vs. drug concentration. […] The evaluation was based on means from at least four independent experiments.

BxPC-3 cells = experiment: 3D spheroid cytotoxicity, acid phosphatase (APH) assay, BxPC-3; settings: read-out: IC50 ±S.D. BxPC-3 (3D cytotoxicity); spheroids, 72 h, APH test
Protocol: as §1, §2

[3] = test system: caspase-3 and -8 in PSN-1 cells; experiment: Caspase-3 and -8 activity; type: cell-based, human; settings: 24 h, IC50 doses
Protocol: Apoptotic cell death can be triggered by a mitochondria-mediated or mitochondrial-independent pathways. In the […], caspase-8 and caspase-3 play an essential role. […] Staurosporine (STS), an alkaloid inducing apoptosis through caspase-3 and -8 activation was used as a positive control. […] Caspase-3 and -8 cleavage reached values similar to that induced by the well-known caspase-dependent apoptosis inducer staurosporine (Figure 10C).
Protein aliquots (100 μg) were stained at 37 °C for 60 min with fluorescent caspase-3 (N-acetyl-Asp-Glu-Val-Asp-AMC, AMC = 7-amino-4-methylcoumarin) or caspase-8 (Ac-Val-Glu-Thr-Asp-AMC) substrates. Substrate hydrolysis was measured after 60 min by monitoring the release of AMC using a a Tecan microplate reader (excitation at 370 nm, emission at 460 nm).

PSN-1 cells [4] = experiment: ROS production (CM-H2DCFDA); type: cell-based, human; settings: 5 µM test compounds, antimycin 3 µM as positive control
Protocol: Consistently, tested compounds, although to different extents, were effective in reducing total cellular sulfhydryl contents in PSN-1-treated cells (Figure 9B).
The production of ROS was measured in PSN-1 cells (10^4 per well) grown for 24 h in a 96-well plate in RPMI medium without phenol red (Sigma Aldrich, Germany). Cells were then washed with PBS and loaded with 10 μM 5-(and-6)-chloromethyl-2′,7′-dichlorodihydrofluorescein diacetate acetylester (CM–H2DCFDA) (Molecular Probes-Invitrogen, Eugene, OR, USA) for 45 min, in the dark. Afterward, cells were washed with PBS and incubated with tested compounds. Fluorescence increase was estimated utilizing the wavelengths of 485 nm (excitation) and 527 nm (emission) in a VICTOR X3 (PerkinElmer, USA) plate reader. Antimycin (3 μM, Sigma Aldrich), a potent inhibitor of Complex III in the electron transport chain, was used as the positive control.

PSN-1 cells [5] = experiment: Mitochondrial membrane potential (Mito-ID kit); type: cell-based, human; settings: IC50 concentrations
Protocol: The ΔΨ was assayed using the Mito-ID® Membrane Potential Kit according to the manufacturer’s instructions (Enzo Life Sciences, Farmingdale, NY, USA) as previously described. Briefly, PSN-1 cells (8 × 10^3 per well) were seeded in 96-well plates; after 24 h, cells were washed with PBS and loaded with Mito-ID Detection Reagent for 30 min at 37 °C in the dark. Afterward, cells were incubated with tested compounds for 60 min. CCCP (Carbonyl cyanide 3-chlorophenyl-hydrazone) was used as the positive control. Fluorescence intensity was estimated using a VICTOR X3 (PerkinElmer, Waltham, MA, USA) plate reader at 490 (excitation) and 590 nm (emission).

recombinant human PDK1 = recombinant human PDK1 (Homo sapiens, UniProt Q15118); experiment: ADP-Glo kinase assay, PDK1
Sequence of recombinant human PDK1 (Q15118 29-436): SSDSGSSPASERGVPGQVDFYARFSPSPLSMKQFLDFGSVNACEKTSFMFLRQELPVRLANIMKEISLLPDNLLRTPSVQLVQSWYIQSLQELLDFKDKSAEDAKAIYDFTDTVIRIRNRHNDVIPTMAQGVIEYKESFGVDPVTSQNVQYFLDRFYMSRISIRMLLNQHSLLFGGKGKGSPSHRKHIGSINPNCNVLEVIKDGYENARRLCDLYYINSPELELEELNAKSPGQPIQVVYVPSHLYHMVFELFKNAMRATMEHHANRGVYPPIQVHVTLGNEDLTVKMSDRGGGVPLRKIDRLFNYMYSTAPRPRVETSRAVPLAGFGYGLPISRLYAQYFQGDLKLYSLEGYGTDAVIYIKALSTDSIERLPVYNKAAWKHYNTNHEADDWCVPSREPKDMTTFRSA
Protocol: The ability of tested compounds to inhibit the activity of PDK 1–4 isoforms was primarily assessed in cell-free experiments by a chemioluminescent assay, the ADPGlo™ Kinase Assay kit from Promega (Promega Corporation, Madison, WI, USA).
The in vitro inhibitory activity of tested compounds on recombinant human PDK1-4 isoforms (Abcam, Cambridge, MA, USA) was evaluated by using the ADPGlo™ Kinase Assay kit from Promega (Promega Corporation, Madison, WI, USA) following the instructions of the manufacturer. […] The reaction was then started by the addition of substrate/ATP for 60 min at room temperature. Subsequently, ADP-Glo™ reagent was added and incubated for 40 min prior to kinase detection reagent addition. After 30 min, the luminescence was measured with a Tecan plate reader (Tecan Infinite® M200). Raw data were normalized to the values of control wells and luminescence values for each drug dose were expressed as a percentage of the luminescence of control untreated wells. […] The evaluation was based on means from at least three independent experiments.

recombinant human HSP90 = recombinant human HSP90 (Homo sapiens, UniProt P07900); experiment: HSP90 inhibition assay (Transcreener ADP kit); type: biochemical
Protocol: The in vitro inhibitory activity of tested compounds on recombinant human HSP90 was assessed by The Transcreener™ ADP kit (Bellbrook Labs) according to the manufacturer’s protocol. Human recombinant HSP90 protein was incubated with tested compounds in the presence of 250 μM ATP at 37 °C for 30 min, 4°C for 30 min and ATPase activity was stopped via the addition of the stop and detect buffer. Following this, samples were incubated for 1 h at room temperature with the ADP2 Antibody and the ADP Alexa594 Tracer. The fluorescence intensity polarization of samples was measured with a Tecan plate reader (Tecan Infinite® M200). The evaluation was based on means from at least three independent experiments.

PSN-1 cells [6] = experiment: TEM analysis of mitochondria; type: cell-based, human; settings: 24 h, IC50 concentrations
Protocol: In addition, TEM analyses were performed on PSN-1 cancer cells after 24 h treatment with IC50 concentrations of the representative compounds 5i and 6h.
About 10^6 PSN-1 cancer cells were seeded in 24-well plates and, after 24 h incubation, were treated with IC50 concentrations of tested compounds and incubated for an additional 24 h. Cells were then washed with cold PBS, harvested, and directly fixed with 1.5% glutaraldehyde buffer with 0.2 M sodium cacodylate, pH 7.4. After washing with buffer and postfixation with 1% OsO4 in 0.2 M cacodylate buffer, specimens were dehydrated and embedded in epoxy resin (Epon Araldite). Sagittal serial sections (1 μm) were counterstained with toluidine blue; thin sections (90 nm) were given contrast by staining with uranyl acetate and lead citrate. Micrographs were taken with a Hitachi H-600 electron microscope (Hitachi, Tokyo, Japan) operating at 75 kV. All photos were typeset in Corel Draw 11.

COc1ccc2c(c1)c(-c1nnc(N)nc1-c1cn(C)c3ccccc13)cn2C [6h]
apoptosis induction (nuclear morphology) (PSN-1 cells [1]): brightly stained nuclei and morphological features typical of cells undergoing apoptosis | IC50 (PSN-1 cells [2]): 24.3 ± 1.4 µM | IC50 (BxPC-3 cells): 33.4 ± 3.6 µM | caspase-3 and -8 activation [3]: significantly activated | ROS basal level production / hydrogen peroxide formation (PSN-1 cells [4]): increase in the ROS basal level production | percentage of cells with hypopolarized mitochondrial membrane potential (in words) (PSN-1 cells [5]): significantly increased | IC50 (recombinant human PDK1): 0.08 ± 0.01 µM | effect on enzymatic activity of PDK1 (recombinant human PDK1; 1.5 µM compound, 30 min preincubation): totally suppressed | IC50 (recombinant human HSP90): 0.2 µM | effect on HSP90 enzyme activity (recombinant human HSP90; 1.5 µM compound): completely abolish the enzyme activity | mitochondrial morphology (TEM) (PSN-1 cells [6]): dramatic swelling of the mitochondria
